# Tests used:
# [1] = Antiviral activity against Influenza A virus A/HK/7/87 (H3N2) infected in MDCK cells assessed as inhibition of virus-induced cytopathic effect; assay type: functional, cell-based, Influenza A virus (A/Hong Kong/7/1987(H3N2))
# [2] = Cytotoxicity against MDCK cells assessed as cell viability after 72 hrs by MTS assay; assay type: cell-based, Canis lupus familiaris; conditions: dog
# [3] = Cytotoxicity against MDCK cells assessed as cell morphology by microscopical examination; assay type: cell-based, Canis lupus familiaris; conditions: dog
# [4] = test system: Influenza A virus; test: Antiviral activity against Influenza A virus A/PR/8/34 (H1N1) infected in MDCK cells assessed as inhibition of virus-induced cytopathic effect; assay type: functional, organism-based; conditions: A/Puerto Rico/8/1934(H1N1)
# [5] = target: Matrix protein 2 (Influenza A virus) (UniProt P06821); test: Inhibition of influenza A virus wild type M2 proton channel expressed in Xenopus oocytes at 100 uM for 2 mins by two-electrode voltage clamp analysis; assay type: cell-based
# Sequence of Matrix protein 2 (Influenza A virus) (P06821 whole entry): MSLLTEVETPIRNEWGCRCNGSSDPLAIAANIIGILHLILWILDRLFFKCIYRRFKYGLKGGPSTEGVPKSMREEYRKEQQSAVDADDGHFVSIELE
# [6] = Antiviral activity against Influenza A virus A/HK/7/87 (H3N2) infected in MDCK cells assessed as cell viability by MTS assay; assay type: functional, cell-based, Influenza A virus (A/Hong Kong/7/1987(H3N2))
# [7] = test system: Influenza A virus; test: Antiviral activity against Influenza A virus A/PR/8/34 (H1N1) infected in MDCK cells assessed as cell viability by MTS assay; assay type: functional, organism-based; conditions: A/Puerto Rico/8/1934(H1N1)
Structure (SMILES),EC50 [1] [µM],CC50 at 72 h [2] [µM],MCC [3] [µM],EC50 [4] [µM],inhibition [5] [%],EC50 [6] [µM],EC50 [7] [µM]
C1=CC2C3C4C5C=CC4C24CNCC54C13,14,> 100,> 100,16,,,
C=C1CC23CC=CCC2(CNC3)C1 (stereo not given),> 100,> 100,> 100,45,14.9,> 100,43
CC1CC23CC(C)CC2(C1)CN(C(=N)N)C3 (stereo not given),> 100,> 20,> 100,2,8.8,> 100,1.6
N=C(N)N1C[C@@]23CC=CC[C@@]2(CCC3)C1,> 100,> 100,> 100,> 100,,> 100,> 100
C1=CC[C@]23CCC[C@@]2(C1)CNC3,> 100,> 100,> 100,70,,> 100,56
C1CC[C@]23CCCC[C@@]2(C1)CNC3,> 100,> 100,> 100,5.9,,> 100,13
C=C1CC23CCCC2(CNC3)C1 (stereo not given),> 100,> 100,> 100,> 100,29.9,> 100,> 100
C1=CC[C@]23CCCC[C@@]2(C1)CNC3,> 100,> 100,> 100,30,19.1,> 100,14
C1CC23CCCC2(C1)CNC3 (stereo not given),> 100,> 100,> 100,> 100,47.1,> 100,> 100
C=C1CC23CNCC2(C1)CC(=C)C3 (stereo not given),> 100,> 100,> 100,< 0.8,29.3,> 100,< 0.8
C=C1CC23CC(=C)CC2(C1)CN(C(=N)N)C3 (stereo not given),> 100,20,16,> 100,,> 100,> 100
CC1=C(C)C[C@]23CNC[C@@]2(C1)CC(C)=C(C)C3,> 100,> 100,> 100,7,,> 100,5.6
C1=CC[C@]23CC=CC[C@@]2(C1)CNC3,> 100,> 100,> 100,38,,> 100,30
CC1CC23CNCC2(C1)CC(C)C3 (stereo not given),> 100,> 100,> 100,24,58.7,> 100,20
N=C(N)N1CC23CCCC2(CCC3)C1 (stereo not given),> 100,100,54,> 100,,> 100,> 100

# Source: ChEMBL document CHEMBL3351890, “Azapropellanes with anti-influenza a virus activity” (ACS Med Chem Lett, 2014)
